Measured values from ChEMBL document CHEMBL3769377, “A synthesis, in silico, in vitro and in vivo study of thieno[2,3-b]pyridine anticancer analogues” (Medchemcomm, 2015).

Legend:
[1] = biological target: Mitogen-activated protein kinase 11 (Homo sapiens) (UniProt Q15759); assay: Inhibition of human recombinant p38beta assessed as residual activity at 10 uM after 1 hr by qPCR analysis relative to control
[2] = biological target: Cyclin-dependent kinase 7 (Homo sapiens) (UniProt P50613); assay: Inhibition of human recombinant CDK7 assessed as residual activity at 10 uM after 1 hr by qPCR analysis relative to control
[3] = biological target: Cyclin-dependent kinase 9 (Homo sapiens) (UniProt P50750); assay: Inhibition of human recombinant CDK9 assessed as residual activity at 10 uM after 1 hr by qPCR analysis relative to control
Mus musculus [4] = assay: Toxicity in athymic nude/beige mouse xenografted with human 786-O cells assessed as dark circles around eyes at 0.16 mg/kg, ip qd after 24 days; type: organism-based, 786-0; settings: in vivo, 576 h
[5] = biological target: Tyrosine-protein kinase BTK (Homo sapiens) (UniProt Q06187); assay: Inhibition of human recombinant BTK assessed as residual activity at 10 uM after 1 hr by qPCR analysis relative to control
[6] = biological target: Tyrosine-protein kinase JAK2 (Homo sapiens) (UniProt O60674); assay: Inhibition of human recombinant JAK2 (JH1 domain-catalytic) assessed as residual activity at 10 uM after 1 hr by qPCR analysis relative to control
[7] = biological target: Mitogen-activated protein kinase 10 (Homo sapiens) (UniProt P53779); assay: Inhibition of human recombinant JNK3 assessed as residual activity at 10 uM after 1 hr by qPCR analysis relative to control
[8] = biological target: 3-phosphoinositide-dependent protein kinase 1 (Homo sapiens) (UniProt O15530); assay: Inhibition of human recombinant PDPK1 assessed as residual activity at 10 uM after 1 hr by qPCR analysis relative to control
[9] = biological target: MAP kinase-interacting serine/threonine-protein kinase 1 (Homo sapiens) (UniProt Q9BUB5); assay: Inhibition of human recombinant MKNK1 assessed as residual activity at 10 uM after 1 hr by qPCR analysis relative to control
[10] = biological target: cAMP-dependent protein kinase catalytic subunit alpha (Homo sapiens) (UniProt P17612); assay: Inhibition of human recombinant PKACalpha assessed as residual activity at 10 uM after 1 hr by qPCR analysis relative to control
[11] = biological target: Insulin receptor (Homo sapiens) (UniProt P06213); assay: Inhibition of human recombinant INSR assessed as residual activity at 10 uM after 1 hr by qPCR analysis relative to control
[12] = biological target: Cyclin-dependent kinase 11B (Homo sapiens) (UniProt P21127); assay: Inhibition of human recombinant CDK11 assessed as residual activity at 10 uM after 1 hr by qPCR analysis relative to control
Mus musculus [13] = assay: Toxicity in athymic nude/beige mouse xenografted with human 786-O cells assessed as mild spasm at 0.16 mg/kg, ip qd after 24 days; type: organism-based, 786-0; settings: in vivo, 576 h
[14] = biological target: Inhibitor of nuclear factor kappa-B kinase subunit alpha (Homo sapiens) (UniProt O15111); assay: Inhibition of human recombinant IKKalpha assessed as residual activity at 10 uM after 1 hr by qPCR analysis relative to control
[15] = biological target: Serine/threonine-protein kinase PAK 4 (Homo sapiens) (UniProt O96013); assay: Inhibition of human recombinant PAK4 assessed as residual activity at 10 uM after 1 hr by qPCR analysis relative to control
Mus musculus [16] = assay: Toxicity in athymic nude/beige mouse xenografted with human 786-O cells assessed as signs of facial hirsutism at 0.16 mg/kg, ip qd after 24 days; type: organism-based, 786-0; settings: in vivo, 576 h
[17] = biological target: Proto-oncogene tyrosine-protein kinase receptor Ret (Homo sapiens) (UniProt P07949); assay: Inhibition of human recombinant RET assessed as residual activity at 10 uM after 1 hr by qPCR analysis relative to control
[18] = biological target: Phosphatidylinositol 4,5-bisphosphate 3-kinase catalytic subunit alpha isoform (Homo sapiens) (UniProt P42336); assay: Inhibition of human recombinant PIK3CA assessed as residual activity at 10 uM after 1 hr by qPCR analysis relative to control
[19] = biological target: TGF-beta receptor type-1 (Homo sapiens) (UniProt P36897); assay: Inhibition of human recombinant TGFBR1 assessed as residual activity at 10 uM after 1 hr by qPCR analysis relative to control
[20] = biological target: Aurora kinase B (Homo sapiens) (UniProt Q96GD4); assay: Inhibition of human recombinant AURKB assessed as residual activity at 10 uM after 1 hr by qPCR analysis relative to control
[21] = biological target: Receptor tyrosine-protein kinase erbB-2 (Homo sapiens) (UniProt P04626); assay: Inhibition of human recombinant ERBB2 assessed as residual activity at 10 uM after 1 hr by qPCR analysis relative to control
[22] = biological target: Vascular endothelial growth factor receptor 2 (Homo sapiens) (UniProt P35968); assay: Inhibition of human recombinant VEGFR2 assessed as residual activity at 10 uM after 1 hr by qPCR analysis relative to control
[23] = biological target: Bone morphogenetic protein receptor type-2 (Homo sapiens) (UniProt Q13873); assay: Inhibition of human recombinant BMPR2 assessed as residual activity at 10 uM after 1 hr by qPCR analysis relative to control
[24] = biological target: Atypical kinase COQ8A, mitochondrial (Homo sapiens) (UniProt Q8NI60); assay: Inhibition of human recombinant ADCK3 assessed as residual activity at 10 uM after 1 hr by qPCR analysis relative to control
[25] = biological target: Fibroblast growth factor receptor 3 (Homo sapiens) (UniProt P22607); assay: Inhibition of human recombinant FGFR3 assessed as residual activity at 10 uM after 1 hr by qPCR analysis relative to control
[26] = biological target: Serine/threonine-protein kinase pim-2 (Homo sapiens) (UniProt Q9P1W9); assay: Inhibition of human recombinant PIM2 assessed as residual activity at 10 uM after 1 hr by qPCR analysis relative to control
[27] = biological target: Rho-associated protein kinase 2 (Homo sapiens) (UniProt O75116); assay: Inhibition of human recombinant ROCK2 assessed as residual activity at 10 uM after 1 hr by qPCR analysis relative to control
[28] = biological target: Serine/threonine-protein kinase Chk1 (Homo sapiens) (UniProt O14757); assay: Inhibition of human recombinant CHEK1 assessed as residual activity at 10 uM after 1 hr by qPCR analysis relative to control
[29] = biological target: Tyrosine-protein kinase ABL1 (Homo sapiens) (UniProt P00519); assay: Inhibition of human recombinant phosphorylated ABL1 assessed as residual activity at 10 uM after 1 hr by qPCR analysis relative to control
[30] = biological target: Insulin-like growth factor 1 receptor (Homo sapiens) (UniProt P08069); assay: Inhibition of human recombinant IGF1R assessed as residual activity at 10 uM after 1 hr by qPCR analysis relative to control
[31] = biological target: Dual specificity mitogen-activated protein kinase kinase 2 (Homo sapiens) (UniProt P36507); assay: Inhibition of human recombinant MEK2 assessed as residual activity at 10 uM after 1 hr by qPCR analysis relative to control

Chain of Receptor tyrosine-protein kinase erbB-2 (Homo sapiens) (P04626 whole entry): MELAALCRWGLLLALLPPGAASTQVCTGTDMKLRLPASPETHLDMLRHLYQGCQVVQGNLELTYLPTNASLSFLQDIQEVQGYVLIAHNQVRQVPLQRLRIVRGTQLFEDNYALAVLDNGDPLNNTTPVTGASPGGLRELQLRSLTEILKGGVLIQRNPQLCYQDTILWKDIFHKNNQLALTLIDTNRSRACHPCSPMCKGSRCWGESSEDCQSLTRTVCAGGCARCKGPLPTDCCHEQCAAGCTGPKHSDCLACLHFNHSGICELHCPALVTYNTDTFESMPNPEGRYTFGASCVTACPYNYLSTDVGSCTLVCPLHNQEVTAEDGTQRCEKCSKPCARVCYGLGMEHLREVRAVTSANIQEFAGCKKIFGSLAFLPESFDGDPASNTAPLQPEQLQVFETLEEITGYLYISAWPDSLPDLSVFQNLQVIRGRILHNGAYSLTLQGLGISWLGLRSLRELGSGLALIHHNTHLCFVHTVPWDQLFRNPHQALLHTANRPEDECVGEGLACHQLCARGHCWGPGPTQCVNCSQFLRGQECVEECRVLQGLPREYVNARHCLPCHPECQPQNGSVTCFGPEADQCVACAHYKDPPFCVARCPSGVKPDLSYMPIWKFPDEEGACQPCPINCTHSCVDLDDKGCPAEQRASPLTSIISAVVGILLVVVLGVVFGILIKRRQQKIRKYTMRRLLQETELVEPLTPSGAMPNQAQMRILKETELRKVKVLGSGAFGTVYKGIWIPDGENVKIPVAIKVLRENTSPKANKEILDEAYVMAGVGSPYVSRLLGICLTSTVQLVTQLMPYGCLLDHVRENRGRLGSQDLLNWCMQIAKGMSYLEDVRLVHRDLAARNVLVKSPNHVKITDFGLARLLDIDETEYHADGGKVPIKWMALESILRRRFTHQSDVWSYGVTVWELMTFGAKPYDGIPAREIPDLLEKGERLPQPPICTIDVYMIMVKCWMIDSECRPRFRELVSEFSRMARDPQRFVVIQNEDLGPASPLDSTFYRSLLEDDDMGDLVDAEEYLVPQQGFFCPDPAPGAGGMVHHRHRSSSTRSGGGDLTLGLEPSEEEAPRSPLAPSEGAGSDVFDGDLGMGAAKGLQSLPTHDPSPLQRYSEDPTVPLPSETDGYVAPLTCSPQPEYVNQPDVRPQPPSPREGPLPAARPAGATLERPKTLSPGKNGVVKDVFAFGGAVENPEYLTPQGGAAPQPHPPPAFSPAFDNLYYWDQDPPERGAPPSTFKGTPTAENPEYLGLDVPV
Chain of Bone morphogenetic protein receptor type-2 (Homo sapiens) (Q13873 whole entry): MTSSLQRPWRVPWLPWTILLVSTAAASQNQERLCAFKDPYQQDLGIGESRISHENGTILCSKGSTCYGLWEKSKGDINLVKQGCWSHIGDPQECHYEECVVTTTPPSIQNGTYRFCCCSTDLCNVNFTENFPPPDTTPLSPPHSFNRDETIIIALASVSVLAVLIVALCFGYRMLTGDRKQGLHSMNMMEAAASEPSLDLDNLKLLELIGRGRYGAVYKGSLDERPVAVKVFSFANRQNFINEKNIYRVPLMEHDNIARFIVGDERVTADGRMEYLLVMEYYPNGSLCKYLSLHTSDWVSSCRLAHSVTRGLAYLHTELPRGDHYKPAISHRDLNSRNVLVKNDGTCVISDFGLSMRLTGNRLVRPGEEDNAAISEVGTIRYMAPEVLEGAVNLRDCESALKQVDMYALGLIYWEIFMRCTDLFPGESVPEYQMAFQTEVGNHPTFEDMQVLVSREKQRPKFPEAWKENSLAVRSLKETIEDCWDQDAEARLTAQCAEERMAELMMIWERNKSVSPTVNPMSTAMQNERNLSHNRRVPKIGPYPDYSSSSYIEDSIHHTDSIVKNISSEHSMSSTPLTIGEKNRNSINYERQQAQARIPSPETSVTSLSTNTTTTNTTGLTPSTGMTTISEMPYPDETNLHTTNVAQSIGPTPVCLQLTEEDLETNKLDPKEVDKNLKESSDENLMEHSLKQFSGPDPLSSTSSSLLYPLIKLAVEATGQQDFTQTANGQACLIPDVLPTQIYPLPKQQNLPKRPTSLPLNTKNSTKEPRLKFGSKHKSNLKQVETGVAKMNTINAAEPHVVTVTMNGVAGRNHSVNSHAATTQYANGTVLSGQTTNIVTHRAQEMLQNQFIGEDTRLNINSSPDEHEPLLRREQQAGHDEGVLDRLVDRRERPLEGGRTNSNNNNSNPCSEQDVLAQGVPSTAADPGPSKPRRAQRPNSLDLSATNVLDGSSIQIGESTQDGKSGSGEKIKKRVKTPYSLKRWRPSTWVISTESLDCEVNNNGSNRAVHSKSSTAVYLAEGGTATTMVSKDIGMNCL
Chain of Phosphatidylinositol 4,5-bisphosphate 3-kinase catalytic subunit alpha isoform (Homo sapiens) (P42336 whole entry, canonical isoform): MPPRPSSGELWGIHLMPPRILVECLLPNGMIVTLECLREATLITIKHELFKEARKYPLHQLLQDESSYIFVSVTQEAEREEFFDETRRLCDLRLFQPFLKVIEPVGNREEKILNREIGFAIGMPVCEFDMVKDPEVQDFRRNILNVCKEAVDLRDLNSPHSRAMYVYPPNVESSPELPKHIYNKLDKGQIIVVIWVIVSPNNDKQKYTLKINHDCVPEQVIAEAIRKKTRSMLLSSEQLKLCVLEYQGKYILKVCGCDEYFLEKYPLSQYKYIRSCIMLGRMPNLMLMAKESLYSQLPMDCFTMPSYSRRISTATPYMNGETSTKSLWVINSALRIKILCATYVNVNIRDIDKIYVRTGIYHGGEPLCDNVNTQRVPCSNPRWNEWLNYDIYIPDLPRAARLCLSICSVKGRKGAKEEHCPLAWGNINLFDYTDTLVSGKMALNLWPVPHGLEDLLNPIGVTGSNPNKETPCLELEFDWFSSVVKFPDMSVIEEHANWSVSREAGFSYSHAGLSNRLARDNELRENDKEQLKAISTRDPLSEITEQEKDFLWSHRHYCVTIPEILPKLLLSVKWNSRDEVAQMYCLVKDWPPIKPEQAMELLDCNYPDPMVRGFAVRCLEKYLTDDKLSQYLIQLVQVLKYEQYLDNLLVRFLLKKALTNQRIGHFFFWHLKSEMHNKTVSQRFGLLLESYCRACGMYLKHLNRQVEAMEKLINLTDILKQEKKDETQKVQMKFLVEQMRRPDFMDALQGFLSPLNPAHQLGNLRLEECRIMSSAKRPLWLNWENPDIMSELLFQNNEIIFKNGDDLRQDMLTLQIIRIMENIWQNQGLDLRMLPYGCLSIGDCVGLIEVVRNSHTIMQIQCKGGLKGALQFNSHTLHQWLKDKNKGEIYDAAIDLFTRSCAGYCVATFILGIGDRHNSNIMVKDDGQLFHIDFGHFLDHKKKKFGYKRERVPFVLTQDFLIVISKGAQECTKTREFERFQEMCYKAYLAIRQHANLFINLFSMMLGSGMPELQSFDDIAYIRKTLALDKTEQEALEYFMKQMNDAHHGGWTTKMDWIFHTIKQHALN
Chain of Cyclin-dependent kinase 7 (Homo sapiens) (P50613 whole entry): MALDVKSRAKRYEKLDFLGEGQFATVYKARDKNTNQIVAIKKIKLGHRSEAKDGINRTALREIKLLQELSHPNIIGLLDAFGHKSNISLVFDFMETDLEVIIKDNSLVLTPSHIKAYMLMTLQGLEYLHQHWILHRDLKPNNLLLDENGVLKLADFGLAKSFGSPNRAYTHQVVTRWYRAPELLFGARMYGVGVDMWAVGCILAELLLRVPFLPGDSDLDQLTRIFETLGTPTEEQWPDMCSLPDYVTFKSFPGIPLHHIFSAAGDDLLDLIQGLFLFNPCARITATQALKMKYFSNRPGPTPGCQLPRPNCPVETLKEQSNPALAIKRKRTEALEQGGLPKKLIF
Chain of Atypical kinase COQ8A, mitochondrial (Homo sapiens) (Q8NI60 163-647 limits assumed): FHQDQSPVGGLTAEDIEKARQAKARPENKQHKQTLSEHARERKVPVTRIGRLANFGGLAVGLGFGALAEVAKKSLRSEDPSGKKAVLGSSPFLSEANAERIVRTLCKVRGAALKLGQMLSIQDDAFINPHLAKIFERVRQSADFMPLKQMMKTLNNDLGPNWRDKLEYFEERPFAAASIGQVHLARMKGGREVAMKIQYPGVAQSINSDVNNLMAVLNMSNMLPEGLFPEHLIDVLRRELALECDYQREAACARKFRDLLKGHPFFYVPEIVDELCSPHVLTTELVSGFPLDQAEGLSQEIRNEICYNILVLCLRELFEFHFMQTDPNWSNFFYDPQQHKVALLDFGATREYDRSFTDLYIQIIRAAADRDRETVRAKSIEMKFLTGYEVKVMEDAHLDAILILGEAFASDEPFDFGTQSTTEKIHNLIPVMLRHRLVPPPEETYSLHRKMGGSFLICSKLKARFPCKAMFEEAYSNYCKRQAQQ
Chain of Tyrosine-protein kinase BTK (Homo sapiens) (Q06187 whole entry, the tested form may be a part): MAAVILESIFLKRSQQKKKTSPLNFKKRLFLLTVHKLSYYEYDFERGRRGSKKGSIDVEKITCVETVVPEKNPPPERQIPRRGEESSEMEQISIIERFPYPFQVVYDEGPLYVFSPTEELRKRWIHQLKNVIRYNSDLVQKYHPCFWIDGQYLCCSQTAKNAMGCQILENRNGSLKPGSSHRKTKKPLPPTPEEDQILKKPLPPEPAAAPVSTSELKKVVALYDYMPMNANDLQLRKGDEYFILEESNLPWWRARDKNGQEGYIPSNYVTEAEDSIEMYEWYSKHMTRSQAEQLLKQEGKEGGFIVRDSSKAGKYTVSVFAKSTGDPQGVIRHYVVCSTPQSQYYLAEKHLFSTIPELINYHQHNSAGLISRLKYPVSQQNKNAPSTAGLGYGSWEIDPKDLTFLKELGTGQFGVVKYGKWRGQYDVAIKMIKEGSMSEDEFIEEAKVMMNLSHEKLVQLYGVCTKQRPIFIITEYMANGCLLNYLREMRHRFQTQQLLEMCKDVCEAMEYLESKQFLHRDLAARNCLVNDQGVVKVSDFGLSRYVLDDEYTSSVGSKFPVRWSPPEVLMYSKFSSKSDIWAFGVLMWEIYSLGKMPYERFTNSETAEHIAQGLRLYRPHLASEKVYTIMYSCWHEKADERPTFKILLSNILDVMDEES

Cc1c(Cl)cccc1NC(=O)c1sc2nc3c(cc2c1N)C(=O)CC3
Activity [1]: 100%
Activity [2]: 99%
Activity [3]: 100%
Activity (Mus musculus [4]): Toxic
Activity [5]: 100%
Activity [6]: 94%
Activity [7]: 95%
Activity [8]: 100%
Activity [9]: 100%
Activity [10]: 94%
Activity [11]: 97%
Activity [12]: 100%
Activity (Mus musculus [13]): Toxic
Activity [14]: 100%
Activity [15]: 85%
Activity (Mus musculus [16]): Toxic
Activity [17]: 100%
Activity [18]: 100%
Activity [19]: 100%
Activity [20]: 92%
Activity [21]: 100%
Activity [22]: 100%
Activity [23]: 96%
Activity [24]: 96%
Activity [25]: 100%
Activity [26]: 80%
Activity [27]: 100%
Activity [28]: 94%
Activity [29]: 100%
Activity [30]: 97%
Activity [31]: 98%
